Tests used:
[1] = prior art statement; cited from earlier work
[2] = test system: Penicillium chrysogenum; test: Fungicidal activity, inhibition of mycelium growth on wort agar; format: cell-based
Text: (§1) Man prüfte die funguzide Aktivität von Zink-bis-(N-vi- nyloxyethyl)dithiocarbamat gegenüber den reinen Pilzkulturen: Gladosporium resinae, Cladosporium cladosporioides, Acremonium corvum, Acremonium charticola, Penicillium charlesii Smith, Walrotiela subiculesa, Geotrichum candidum Link, Oidium, Penicillium crysogenum. Die genannten Pilze wurden von den Oberflächen der Wände und Decken von Bierbrauereien und Werken für die Herstellung von alkoholfreien Getränken ausgeschieden.
(§2) […] In eine der Petri-Schalen wurde Nährboden mit 1 ml Azeton (Kontrolle) gegossen.
(§3) In 18 bis 20 Stunden nach dem Vergießen des Nährbodens in die Petri-Schalen führte man die Inokulation der reinen Pilzkultur durch, die vorher an einem Schräg-Würzeagar während 15 Tage gezüchtet wurden. Die Inkubation führte man bei einer Temperatur von 25 bis 27°C während 5 Tage durch. Danach wurde der Durchmesser der Pilzkolonien gemessen und der Prozentsatz der Hemmung des Wachstums des Myzeliums (S) nach der Abbott -Formel gezählt: [formula] worin dc Durchmesser der Pilzkolonien in Kontrolle ist, de =Durchmesser der Pilzkolonien in einer Schale mit dem Nährboden ist, der Zink-bis-(N-vinyloxyethyl)dithiocarbamat enthält.

[3] = test system: Oidium; test: as above; format: cell-based
Text: as §1, §2, §3

[4] = test system: Cladosporium cladosporioides; test: as above; format: cell-based
Text: as §1, §2, §3

[5] = test system: Acremonium charticola; test: as above; format: cell-based
Text: as §1, §2, §3

[6] = test system: Cladosporium resinae; test: as above; format: cell-based
Text: as §1, §2, §3

[7] = test system: Acremonium corvum; test: as above; format: cell-based
Text: as §1, §2, §3

[8] = test system: Penicillium charlesii Smith; test: as above; format: cell-based
Text: as §1, §2, §3

[9] = test system: Walrotiela subiculesa; test: as above; format: cell-based
Text: as §1, §2, §3

[10] = test system: Geotrichum candidum Link; test: as above; format: cell-based
Text: as §1, §2, §3

[11] = test system: weißen Mäusen; test: Acute toxicity in white mice
[12] = Acute toxicity in white mice; details: mouse, in vivo, ip
[13] = Solubility in solvents (qualitative); details: for Löslichkeit im Alkohol: Alkohol (Ethylalkohol)
[14] = Storage stability (qualitative); format: physicochemical; details: result in words
[15] = test system: p.Pseudomonas; test: Bactericidal activity, growth on agar medium; format: cell-based; details: 37°C, 5 Tage
Experimental: (§4) Die bakterizide Aktivität des Kalium N-(vinyloxyethyl)-dithiocarbamats gegenüber den Bakterien, die von der Oberfläche von Wänden und Decken der Produktionsräume von Brauereien und Fabriken zur Herstellunq von alkoholfreien Getränken ausgeschieden wurden und die zu p.p.Bacillus, Micrococcus, Pseudomonas, Escherichiae gehören, wurde geprüft.
(§5) Es wurden wäßrige Lösungen des genannten Stoffes verschiedener Konzentration hergestellt, die so berechnet wurde, daß bei Einführung von 1 ml der Lösung in 25 ml geschmolzenen agarisierten Nährboden (45-50°C) die Konzentration des Stoffes im Nährboden von 0,003 bis 0,5% betrug. In 18 bis 24 Stunden wurde auf die Oberfläche des Nährbodens 0,1 ml der wäßrigen Suspension der eintägigen reinen Bakterienkulturen aufgetragen, die am Fleisch-Pepton-Agar gezüchtet wurden. Die Suspension wurde gleichmäßig verteilt. In Kontrollschalen wurden 0,1 ml Wasser auf der Oberfläche des Närhbodens verteilt.
(§6) Die Inkubation führte man bei einer Temperatur von 37°C während 5 Tage durch.
(§7) Die effektive Wirkung des Stoffes wurde nach dem Auftreten des Bakterienwachstums an der Oberfläche des Nährbodens bewertet.

[16] = test system: p.Bacillus; test: Bactericidal activity, growth on agar medium; format: cell-based; details: 37°C, 5 Tage
Experimental: as §4, §5, §6, §7

[17] = test system: p. Escherichiae; test: Bactericidal activity, growth on agar medium; format: cell-based; details: 37°C, 5 Tage
Experimental: as §4, §5, §6, §7

[18] = test system: p.Micrococcus; test: Bactericidal activity, growth on agar medium; format: cell-based; details: 37°C, 5 Tage
Experimental: as §4, §5, §6, §7

[19] = test system: Schimmelpilzen, die die Bewachsung von Oberflächen hervorrufen; test: Fungicidal activity, summary over all tested fungi; format: cell-based; details: day 5
Text: as §1
Es wurden Lösungen des Zink-bis-(N-vinyloxyethyl)di- thiocarbamats im Azeton verschiedener Konzentration hergestellt, die so berechnet wurde, daß bei der Einführung vor 1 ml Lösung in 10 ml des geschmolzenen Würzeagars (45-50°C) die Konzentration des genannten Stoffes im Medium von 0,0015 bis 0,012% betrug. In eine der Petri-Schalen wurde Nährboden mit 1 ml Azeton (Kontrolle) gegossen.
as §3

[20] = Konzentration des Stoffes 0,0015 %
[21] = Konzentration des Stoffes 0,003 %
[22] = Konzentration des Stoffes 0,006 %
[23] = Konzentration des Stoffes 0,012 %
[24] = Konzentration des Stoffes 0,1 % (0,10)
[25] = Konzentration des Stoffes 0,05 %
[26] = Konzentration des Stoffes 0,15 %

## CCCCCCCCn1sccc1=O [2-n-Oktyl-4-isothiazolinon-3]
[1]
  effektive Konzentration als Biozid für Lack- und Farbstoffe: 0,4 Masse%

## C=COCCNC(=S)[S-].[Na+] [Natrium-N-(vinyloxyethyl)dithiocarbamat]
[2]; [20]
  Hemmung des Myzeliums am 5. Tag des Wachstums, Penicillium chrysogenum: 5%
[2]; [21]
  Hemmung des Myzeliums am 5. Tag des Wachstums, Penicillium chrysogenum: 20%
[2]; [22]
  Hemmung des Myzeliums am 5. Tag des Wachstums, Penicillium chrysogenum: 80%
[2]; [23]
  Hemmung des Myzeliums am 5. Tag des Wachstums, Penicillium chrysogenum: 100%
[3]; [20]
  Hemmung des Myzeliums am 5. Tag des Wachstums, Oidium: 60%
[3]; [21]
  Hemmung des Myzeliums am 5. Tag des Wachstums, Oidium: 100%
[3]; [22]
  Hemmung des Myzeliums am 5. Tag des Wachstums, Oidium: 100%
[3]; [23]
  Hemmung des Myzeliums am 5. Tag des Wachstums, Oidium: 100%
[4]; [20]
  Hemmung des Myzeliums am 5. Tag des Wachstums, Cladosporium cladosporioides: 100%
[4]; [21]
  Hemmung des Myzeliums am 5. Tag des Wachstums, Cladosporium cladosporioides: 100%
[4]; [22]
  Hemmung des Myzeliums am 5. Tag des Wachstums, Cladosporium cladosporioides: 100%
[4]; [23]
  Hemmung des Myzeliums am 5. Tag des Wachstums, Cladosporium cladosporioides: 100%
[5]; [20]
  Hemmung des Myzeliums am 5. Tag des Wachstums, Acremonium charticola: 100%
[5]; [21]
  Hemmung des Myzeliums am 5. Tag des Wachstums, Acremonium charticola: 100%
[5]; [22]
  Hemmung des Myzeliums am 5. Tag des Wachstums, Acremonium charticola: 100%
[5]; [23]
  Hemmung des Myzeliums am 5. Tag des Wachstums, Acremonium charticola: 100%
[6]; [20]
  Hemmung des Myzeliums am 5. Tag des Wachstums, Cladosporium resinae: 100%
[6]; [21]
  Hemmung des Myzeliums am 5. Tag des Wachstums, Cladosporium resinae: 100%
[6]; [22]
  Hemmung des Myzeliums am 5. Tag des Wachstums, Cladosporium resinae: 100%
[6]; [23]
  Hemmung des Myzeliums am 5. Tag des Wachstums, Cladosporium resinae: 100%
[7]; [20]
  Hemmung des Myzeliums am 5. Tag des Wachstums, Acremonium corvum: 100%
[7]; [21]
  Hemmung des Myzeliums am 5. Tag des Wachstums, Acremonium corvum: 100%
[7]; [22]
  Hemmung des Myzeliums am 5. Tag des Wachstums, Acremonium corvum: 100%
[7]; [23]
  Hemmung des Myzeliums am 5. Tag des Wachstums, Acremonium corvum: 100%
[8]; [20]
  Hemmung des Myzeliums am 5. Tag des Wachstums, Penicillium charlesii Smith: 25%
[8]; [21]
  Hemmung des Myzeliums am 5. Tag des Wachstums, Penicillium charlesii Smith: 40%
[8]; [22]
  Hemmung des Myzeliums am 5. Tag des Wachstums, Penicillium charlesii Smith: 90%
[8]; [23]
  Hemmung des Myzeliums am 5. Tag des Wachstums, Penicillium charlesii Smith: 100%
[9]; [20]
  Hemmung des Myzeliums am 5. Tag des Wachstums, Walrotiela subiculesa: 100%
[9]; [21]
  Hemmung des Myzeliums am 5. Tag des Wachstums, Walrotiela subiculesa: 100%
[9]; [22]
  Hemmung des Myzeliums am 5. Tag des Wachstums, Walrotiela subiculesa: 100%
[9]; [23]
  Hemmung des Myzeliums am 5. Tag des Wachstums, Walrotiela subiculesa: 100%
[10]; [20]
  Hemmung des Myzeliums am 5. Tag des Wachstums, Geotrichum candidum Link: 5%
[10]; [21]
  Hemmung des Myzeliums am 5. Tag des Wachstums, Geotrichum candidum Link: 40%
[10]; [22]
  Hemmung des Myzeliums am 5. Tag des Wachstums, Geotrichum candidum Link: 75%
[10]; [23]
  Hemmung des Myzeliums am 5. Tag des Wachstums, Geotrichum candidum Link: 100%
[11]; result in words
  Toxizität für Warmblüter: wenig toxisch
[12]
  LD50: 260 mg/kg
[13]
  Löslichkeit im Alkohol: teilweise
  Löslichkeit im Azeton: teilweise
  Löslichkeit im Diethylether: unlöslich
  Löslichkeit in Wasser: gut löslich
[14]
  Lagerbeständigkeit: lagerbeständig

## Kupfer-N-(vinyloxyethyl)dithiocarbamat
[2]; [24]
  Hemmung des Myzeliums am 5. Tag des Wachstums, Penicillium chrysogenum: 24%
[2]; [25]
  Hemmung des Myzeliums am 5. Tag des Wachstums, Penicillium chrysogenum: 4%
[2]; [26]
  Hemmung des Myzeliums am 5. Tag des Wachstums, Penicillium chrysogenum: 85%
[3]; Konzentration des Stoffes 0,1 %
  Hemmung des Myzeliums am 5. Tag des Wachstums, Oidium: 67%
[3]; [25]
  Hemmung des Myzeliums am 5. Tag des Wachstums, Oidium: 0%
[3]; [26]
  Hemmung des Myzeliums am 5. Tag des Wachstums, Oidium: 100%
[4]; [24]
  Hemmung des Myzeliums am 5. Tag des Wachstums, Cladosporium cladosporioides: 100%
[4]; [25]
  Hemmung des Myzeliums am 5. Tag des Wachstums, Cladosporium cladosporioides: 45%
[4]; [26]
  Hemmung des Myzeliums am 5. Tag des Wachstums, Cladosporium cladosporioides: 100%
[5]; [24]
  Hemmung des Myzeliums am 5. Tag des Wachstums, Acremonium charticola: 100%
[5]; [25]
  Hemmung des Myzeliums am 5. Tag des Wachstums, Acremonium charticola: 43%
[5]; [26]
  Hemmung des Myzeliums am 5. Tag des Wachstums, Acremonium charticola: 100%
[6]; [24]
  Hemmung des Myzeliums am 5. Tag des Wachstums, Cladosporium resinae: 43%
[6]; [25]
  Hemmung des Myzeliums am 5. Tag des Wachstums, Cladosporium resinae: 34%
[6]; [26]
  Hemmung des Myzeliums am 5. Tag des Wachstums, Cladosporium resinae: 100%
[7]; [24]
  Hemmung des Myzeliums am 5. Tag des Wachstums, Acremonium corvum: 100%
[7]; [25]
  Hemmung des Myzeliums am 5. Tag des Wachstums, Acremonium corvum: 50%
[7]; [26]
  Hemmung des Myzeliums am 5. Tag des Wachstums, Acremonium corvum: 100%
[8]; [24]
  Hemmung des Myzeliums am 5. Tag des Wachstums, Penicillium charlesii Smith: 56%
[8]; [25]
  Hemmung des Myzeliums am 5. Tag des Wachstums, Penicillium charlesii Smith: 24%
[8]; [26]
  Hemmung des Myzeliums am 5. Tag des Wachstums, Penicillium charlesii Smith: 92%
[9]; [24]
  Hemmung des Myzeliums am 5. Tag des Wachstums, Walrotiela subiculesa: 100%
[9]; [25]
  Hemmung des Myzeliums am 5. Tag des Wachstums, Walrotiela subiculesa: 30%
[9]; [26]
  Hemmung des Myzeliums am 5. Tag des Wachstums, Walrotiela subiculesa: 100%
[10]; [24]
  Hemmung des Myzeliums am 5. Tag des Wachstums, Geotrichum candidum Link: 50%
[10]; [25]
  Hemmung des Myzeliums am 5. Tag des Wachstums, Geotrichum candidum Link: 3%
[10]; [26]
  Hemmung des Myzeliums am 5. Tag des Wachstums, Geotrichum candidum Link: 100%
[11]; intraabdominale Einführung bei weißen Mäusen
  LD50: 267 mg/kg
[13]
  Löslichkeit im Alkohol: teilweise löslich
  Löslichkeit im Azeton: teilweise löslich
  Löslichkeit im Diethylether: unlöslich
  Löslichkeit in Wasser: unlöslich
[13]; Dimethylsulfoxid
  Löslichkeit im Dimethylsulfoxid: gut
[15]
  Konzentration der Salze der N-(vinyloxyethyl)dithiocarbaminsäure (100%), die das Wachstum der Bakterien am 5. Tag des Wachstums hemmen, p.Pseudomonas: 0,25%
[16]
  Konzentration der Salze der N-(vinyloxyethyl)dithiocarbaminsäure (100%), die das Wachstum der Bakterien am 5. Tag des Wachstums hemmen, p.Bacillus: 0,25%
[17]
  Konzentration der Salze der N-(vinyloxyethyl)dithiocarbaminsäure (100%), die das Wachstum der Bakterien am 5. Tag des Wachstums hemmen, p. Escherichiae: 0,25%
[18]
  Konzentration der Salze der N-(vinyloxyethyl)dithiocarbaminsäure (100%), die das Wachstum der Bakterien am 5. Tag des Wachstums hemmen, p.Micrococcus: 0,25%
[14]
  Lagerbeständigkeit: lagerbeständig
[19]
  Konzentration, bei der die Entwicklung aller untersuchten Pilze vollständig gehemmt wurde: 0,15%

From EP0256125A1, “MEANS FOR PREVENTING MICROBIOLOGICAL OVERGROWING OF HARD SURFACE” (priority 1985, dated 1987)
